Test results: ChEMBL document CHEMBL1148585, “Classification of chemical compounds by protein-compound docking for use in designing a focused library” (J Med Chem, 2006)

Target: T1, Macrophage migration inhibitory factor (Homo sapiens, UniProt P14174)
T1 sequence (P14174 whole entry): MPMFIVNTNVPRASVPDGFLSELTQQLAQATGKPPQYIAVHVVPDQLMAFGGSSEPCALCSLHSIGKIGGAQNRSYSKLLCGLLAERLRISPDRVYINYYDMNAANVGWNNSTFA
Test: Inhibition of MIF

IC50	Structure (SMILES)
0.4 µM	Oc1ccc(CSc2ccncc2)cc1O
3.4 µM	O=C(O)C1Nc2ccc(Br)cc2C2C=CCC12 (stereo not given)

Second part, the compound before the results:

Structure (SMILES)	IC50
O=C(c1cnc(CCCC2CCCCC2)o1)N1CCN(Cc2ccccc2)CC1	30 µM
CC(C)C(=O)Nc1cc2c(cc1CCc1cccc3ccccc13)C(C(=O)O)CC2c1cccs1 (stereo not given)	8 µM
O=C(O)CC(c1ccc(Cl)cc1)(c1ccc(Cl)cc1)c1ccc(Cl)cc1	8.1 µM
